# From patent publication US20080166805A1, “Culturing human cells and tissues in an N-glycolylneuraminic acid-free environment” (The Regents of the University of California, priority 2005, published 2008)
# Experiments:
# Assay type in all cases: cell-based
# [1] = system: lysosomal sialic acid transporter mutant human fibroblasts (GM08496); experiment: Neu5Gc/ManNGc feeding, lysosomal sialic acid transporter mutant fibroblasts GM08496; conditions: GM08496 (Salla disease) fibroblasts fed 3 mM for 3 days
# From the text: (§1) Cell Lines—Caco-2 cells (human epithelial cells isolated from a primary colon carcinoma), normal human skin fibroblasts (CCD-919-SK) and chinese hamster ovary (CHO-K1) cells were purchased from ATCC (Manassas, Va.) Mutant human skin fibroblasts (GM05520, GM08496 and GM01718) were obtained from the Coriell Institute for Medical Research (Camden, N.J.) Chimpanzee Fred and human […] EBV-transformed lymphoblasts were a gift from Dr. Peter Parham, Stanford University, CA. […]
# (§2) Fractionation of the Labeled Cells—Washed cell pellets were sonicated into 500 μL of 20 mM sodium phosphate buffer or 20 mM Tris-HCl, pH 7.5, using 4×15 second pulses of a sonicator cell disrupter, model Some Dismembrator (Fisher Scientific, Hampton, N.J.) at a probe setting of 3. […] The pellet contained <5% of the incorporated sialic acid as determined using a radioactive tracer (data not shown.) The supernatant was therefore considered as the “total homogenate” fraction. A portion (20%) of the “total homogenate” fraction was taken for protein quantification and Sia analysis by DMB derivatization and HPLC analysis (as discussed below.) The remainder was centrifuged at 100,000×g for 1 h. […] All the Sias in these fractions were released with mild acid hydrolysis if necessary and then analyzed by HPLC after DMB derivatization. […]
# [2] = system: lysosomal sialic acid transporter mutant human fibroblasts (GM05520); experiment: Neu5Gc/ManNGc feeding, lysosomal sialic acid transporter mutant fibroblasts GM05520; conditions: GM05520 (ISSD) fibroblasts fed 3 mM for 3 days
# From the text: as §1, §2
# [3] = system: normal human skin fibroblasts (WT); experiment: Neu5Gc/ManNGc feeding experiment, normal human skin fibroblasts; conditions: normal wild-type (WT) fibroblasts fed 3 mM for 3 days
# Procedure: Cell Culture—Caco-2 cells were propagated in alpha-MEM containing GLUTAMAX™ (Invitrogen, San Diego, Calif.) and a mixture of ribonucleosides and deoxyribonucleosides (Gibco/Invitrogen, San Diego, Calif.) supplemented with 20% FCS. All the fibroblast cell lines and CHO-K1 cells were cultured in the same media supplemented respectively with 15% non-heat inactivated FCS or 10% heat inactivated FCS. Chimpanzee Fred and human […] EBV-transformed lymphoblasts were cultured in RPMI-1640 (Gibco/Invitrogen, San Diego, Calif.) supplemented with 10% heat inactivated FCS or 15% human serum. All of the cultures were maintained at 37° C., 5% CO2 atmosphere. In order to deplete any remaining Neu5Gc from FCS, the cells were split and cultured prior to Neu5Gc feeding experiments for at least 4 days in alpha-MEM supplemented with an adequate percentage of heat-inactivated premium human serum instead of FCS. The cells were then maintained under the same conditions during the whole feeding experiment. The human serum was heat inactivated at 56° C. for 30 min. before use.
# Neu5Gc and ManNGc Feeding Experiment—Neu5Ac, Neu5Gc or ManNGc were dried, dissolved in the appropriate media supplemented with heat-inactivated human serum, sterilized using a Spin-X® (Corning Inc., Corning, N.Y.) and then added to the cells. The pH of the media containing Sia was adjusted to neutrality using sterilized 1M NaOH before starting the feeding experiment. Cells were cultured in the presence of up to 3 mM free Sia or ManNGc for 1 or 3 days at 37° C. At the end of the feeding, cells were washed with cold PBS, harvested either by scraping or with 2 mM EDTA for fibroblasts, and washed again with cold PBS prior to fractionation.
# Fractionation of the Labeled Cells—Washed cell pellets were sonicated into 500 μL of 20 mM sodium phosphate buffer or 20 mM Tris-HCl, pH 7.5, using 4×15 second pulses of a sonicator cell disrupter, model Some Dismembrator (Fisher Scientific, Hampton, N.J.) at a probe setting of 3. The sonicate was centrifuged at 75×g for 15 min., and the pellet obtained consisted primarily of nuclei and unbroken cells. The pellet contained <5% of the incorporated sialic acid as determined using a radioactive tracer (data not shown.) The supernatant was therefore considered as the “total homogenate” fraction. A portion (20%) of the “total homogenate” fraction was taken for protein quantification and Sia analysis by DMB derivatization and HPLC analysis (as discussed below.) The remainder was centrifuged at 100,000×g for 1 h. The resulting pellet, called the “membrane” fraction, was then resuspended by sonication (15 sec.) in 200 μl of sodium acetate buffer, pH 5.5. The 100,000×g supernatant, called the “soluble” fraction was adjusted to 90% ethanol using absolute ice-cold ethanol, and placed overnight at −20° C. The flocculant precipitate, which represents the “soluble protein” fraction, was washed 3 times with 90% ice-cold ethanol and then resuspended in 200 μl of water. […] All the Sias in these fractions were released with mild acid hydrolysis if necessary and then analyzed by HPLC after DMB derivatization. Protein quantification was performed on the total homogenate, membrane and soluble protein fractions by using the BCA protein assay kit from Pierce (Rockford, Ill.) In some experiments, the resulting data obtained for the Sia bound to the membrane fraction and to the soluble proteins were pooled and presented here as a High Molecular Weight (HMW) fraction. […]
smiles,measurement,setting,value
"O=C(CO)N[C@@H]1C(O)O[C@H](CO)[C@@H](O)[C@@H]1O (stereo partly drawn) [ManNGc, N-glycolylmannosamine]",percent of Neu5Gc in membrane-bound glycoconjugates,[1],17%
same,percent of Neu5Gc in membrane-bound glycoconjugates,[2],18%
same,percent of Neu5Gc incorporation into membrane-bound glycoconjugates,[3],19%
